One block for each compound: values may come before it. Active and inactive are the calls of the source. For most assays here, no stated cut-off is given here; in the data, actives have a measured IC50 and inactives only a lower limit.
Assays:
[1] = molecular target: Nucleotide-binding oligomerization domain-containing protein 1 (Homo sapiens, UniProt Q9Y239); assay: NOD1 signaling inhibitors, SAR follow-up, revised (AID 2333); assay type: functional
Tumor necrosis factor = Tumor necrosis factor (Homo sapiens, UniProt P01375); assay: TNFa-triggered NF-kB activation inhibitors, SAR follow-up, cell-based, revised (AID 2337); assay type: functional
Sequence of Tumor necrosis factor (P01375 whole entry): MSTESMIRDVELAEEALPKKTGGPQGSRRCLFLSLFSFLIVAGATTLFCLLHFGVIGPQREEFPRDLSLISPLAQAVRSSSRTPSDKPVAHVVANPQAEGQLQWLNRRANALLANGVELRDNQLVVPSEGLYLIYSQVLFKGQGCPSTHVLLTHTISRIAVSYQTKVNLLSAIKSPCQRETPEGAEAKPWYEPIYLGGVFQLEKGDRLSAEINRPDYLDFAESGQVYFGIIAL

HEK293 = assay: cells; settings: Homo sapiens;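 further: cells exposed to compound for 14 hours overnight before viability readout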
Keap1/Nrf2 = Keap1/Nrf2 (Homo sapiens, UniProt Q14145); assay: Keap1-Nrf2 protein-protein interaction inhibitors, dose response, biochemical, fluorescence polarization, cherry-picked samples (AID 588683)
Sequence of Keap1/Nrf2 (Q16236 whole entry): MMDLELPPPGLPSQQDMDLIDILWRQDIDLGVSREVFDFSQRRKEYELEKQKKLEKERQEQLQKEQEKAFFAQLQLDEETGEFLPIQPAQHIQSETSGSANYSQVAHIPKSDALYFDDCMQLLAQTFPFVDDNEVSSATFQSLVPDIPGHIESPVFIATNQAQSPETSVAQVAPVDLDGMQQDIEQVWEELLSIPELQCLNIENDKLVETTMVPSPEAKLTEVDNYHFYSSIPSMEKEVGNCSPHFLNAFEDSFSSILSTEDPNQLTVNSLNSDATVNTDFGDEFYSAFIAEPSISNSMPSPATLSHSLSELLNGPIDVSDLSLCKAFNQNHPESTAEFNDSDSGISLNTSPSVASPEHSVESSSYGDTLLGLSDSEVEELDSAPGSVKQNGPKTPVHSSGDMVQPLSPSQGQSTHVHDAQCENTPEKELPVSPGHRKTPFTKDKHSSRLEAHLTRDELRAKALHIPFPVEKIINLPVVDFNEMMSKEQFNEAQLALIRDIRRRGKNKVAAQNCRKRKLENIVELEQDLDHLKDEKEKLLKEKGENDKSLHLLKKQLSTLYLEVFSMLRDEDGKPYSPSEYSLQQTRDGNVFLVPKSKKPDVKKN
Sequence of Keap1/Nrf2 (Q14145 whole entry): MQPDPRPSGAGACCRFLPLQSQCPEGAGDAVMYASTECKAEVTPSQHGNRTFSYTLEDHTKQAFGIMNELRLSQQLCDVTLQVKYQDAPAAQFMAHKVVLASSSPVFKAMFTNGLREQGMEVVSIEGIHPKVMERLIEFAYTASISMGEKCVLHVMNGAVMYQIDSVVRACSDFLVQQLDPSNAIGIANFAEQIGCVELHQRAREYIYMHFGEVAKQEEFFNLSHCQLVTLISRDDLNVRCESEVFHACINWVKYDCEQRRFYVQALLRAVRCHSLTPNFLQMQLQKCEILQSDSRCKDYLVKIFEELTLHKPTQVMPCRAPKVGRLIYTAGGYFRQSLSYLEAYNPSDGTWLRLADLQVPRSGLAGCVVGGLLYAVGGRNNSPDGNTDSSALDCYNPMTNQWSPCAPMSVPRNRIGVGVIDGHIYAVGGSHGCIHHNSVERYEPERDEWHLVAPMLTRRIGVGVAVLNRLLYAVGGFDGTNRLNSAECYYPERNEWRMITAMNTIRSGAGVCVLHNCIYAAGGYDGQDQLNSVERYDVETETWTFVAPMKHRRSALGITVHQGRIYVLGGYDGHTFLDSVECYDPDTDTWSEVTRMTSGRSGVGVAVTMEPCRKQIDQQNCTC

HeLa = assay: HeLa cell cytotoxicity, dose response, cytotoxicity control for MITF activator project, CellTiter-Glo luminescence, cherry-pick samples (AID 540259); assay type: functional, cell-based; settings: Homo sapiens

Sequence of Nucleotide-binding oligomerization domain-containing protein 1 (Q9Y239 whole entry, the tested form may be a part): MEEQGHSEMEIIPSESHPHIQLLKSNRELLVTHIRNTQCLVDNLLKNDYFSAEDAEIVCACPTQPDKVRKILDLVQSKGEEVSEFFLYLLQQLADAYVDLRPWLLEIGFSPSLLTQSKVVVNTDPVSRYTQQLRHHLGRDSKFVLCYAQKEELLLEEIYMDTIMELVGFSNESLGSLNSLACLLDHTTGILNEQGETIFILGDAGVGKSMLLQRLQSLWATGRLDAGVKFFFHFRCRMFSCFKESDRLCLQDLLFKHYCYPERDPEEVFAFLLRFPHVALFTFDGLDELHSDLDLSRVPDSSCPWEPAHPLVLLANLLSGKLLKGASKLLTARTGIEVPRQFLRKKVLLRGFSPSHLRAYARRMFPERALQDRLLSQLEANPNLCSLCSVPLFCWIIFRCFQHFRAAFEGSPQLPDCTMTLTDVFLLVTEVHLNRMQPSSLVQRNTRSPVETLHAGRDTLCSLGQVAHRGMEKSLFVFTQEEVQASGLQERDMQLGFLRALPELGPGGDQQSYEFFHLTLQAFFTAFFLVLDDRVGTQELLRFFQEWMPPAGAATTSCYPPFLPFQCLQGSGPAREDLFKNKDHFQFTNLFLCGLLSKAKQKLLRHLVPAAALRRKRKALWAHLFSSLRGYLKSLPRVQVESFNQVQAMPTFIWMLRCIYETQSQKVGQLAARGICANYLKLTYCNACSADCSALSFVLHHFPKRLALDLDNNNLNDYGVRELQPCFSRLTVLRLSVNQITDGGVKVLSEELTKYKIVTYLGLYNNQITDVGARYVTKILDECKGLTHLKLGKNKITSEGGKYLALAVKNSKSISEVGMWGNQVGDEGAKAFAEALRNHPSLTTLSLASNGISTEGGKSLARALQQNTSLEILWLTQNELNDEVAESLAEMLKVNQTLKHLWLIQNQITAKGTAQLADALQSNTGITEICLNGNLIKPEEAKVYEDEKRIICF

Compound: COc1ccc(N2CCN(S(=O)(=O)c3ccc4c(c3)CC(C)N4C(=O)C3CC3)CC2)cc1 (stereo not given)
- IC50 [1]: 0.506 µM (active)
- IC50 (Tumor necrosis factor): 3.85 µM (active)
- IC50 (HEK293): > 20 µM (inactive)

- AC50 (Keap1/Nrf2): > 52 µM (inactive)
Compound: Cc1cc[n+](-c2[n-]c(=O)sc2C=NNC(=S)Nc2ccccc2)cc1C

Compound: CCc1ccc(C(=O)NC2CCCCC2)s1
- AC50 (HeLa): 87.6 µM (active)

— ChEMBL document CHEMBL1201862, “PubChem BioAssay data set” (2004)
